Reference: patent publication US10285977B2, “Compositions and methods for treating alopecia” (David Weinstein Consulting, Inc., priority 2015, dated 2019)

Assays:
[1] = test system: androgenetic alopecia; conditions: at 6-months, cited from earlier work
[2] = test system: dermabrasion lesions of dorsal skin; test: Dermabrasion lesions of dorsal skin of mice treated with RT1061; format: in vivo, ICR mice; conditions: 5 μL of 100 nanomolar topically once daily, 10 days
Description: Retired ICR breeder mice of both sexes with weight between 45 and 50 grams were shaved and rasped to induce dermabrasion lesions. The animals were then randomly assigned (5 per treatment arm) to one of two groups to receive either 5 μL of 100 nanomolar RT1061 or a vehicle control. RT1061 or vehicle control was applied topically to the lesion site once each day including immediately after dermabrasion.

[3] = test system: hair growth; conditions: shaved mice; cited from earlier work
[4] = test system: skin lesions; test: Skin lesions in pig treated topically with RT175; format: in vivo; conditions: single pig, 120 ng topically daily
Description: A single pig underwent bilateral, slit thickness, skin surgery leaving lesions on opposite sides of the pig. One of these lesions was then treated topically with 120 ng of RT175, daily. The other lesion was treated with vehicle only. […] See FIG. 3 and compare 3(b) to 3(a). The de novo hair growth is consistent with the regeneration of the upper hair follicles, most of which would have been removed as the […] sliced through the skin in creating the split thickness wounds.

[5] = test system: androgenic alopecia; test: person with androgenic alopecia treated topically with RT175 and RT175/minoxidil; format: in vivo, human; conditions: 4 months; 120 ng/mL RT175, 1 mL twice daily on crown
Description: The subject went on treatment holiday for 1 month, before beginning treatment with 120 ng/mL of RT175 and 5% w/v minoxidil in 30% w/v ethanol, 50% w/v propylene glycol and 20% w/v water. FIG. 4(c) depicts the subjects scalp before initiation of the second round of treatment.

[6] = test system: scalp; test: Scalp closure following craniotomy in rats treated with RT175; format: in vivo; conditions: RT175 treatment
Excerpt: Rats which had undergone brain surgery to test RT175 mediated regeneration of the brain following stroke. Following surgery, the scalp was closed.

[7] = molecular target: T1, FK506 binding protein 4 (“FKBP52”) (Homo sapiens, UniProt Q02790); conditions: cited from earlier work
T1 sequence (Q02790 1-459): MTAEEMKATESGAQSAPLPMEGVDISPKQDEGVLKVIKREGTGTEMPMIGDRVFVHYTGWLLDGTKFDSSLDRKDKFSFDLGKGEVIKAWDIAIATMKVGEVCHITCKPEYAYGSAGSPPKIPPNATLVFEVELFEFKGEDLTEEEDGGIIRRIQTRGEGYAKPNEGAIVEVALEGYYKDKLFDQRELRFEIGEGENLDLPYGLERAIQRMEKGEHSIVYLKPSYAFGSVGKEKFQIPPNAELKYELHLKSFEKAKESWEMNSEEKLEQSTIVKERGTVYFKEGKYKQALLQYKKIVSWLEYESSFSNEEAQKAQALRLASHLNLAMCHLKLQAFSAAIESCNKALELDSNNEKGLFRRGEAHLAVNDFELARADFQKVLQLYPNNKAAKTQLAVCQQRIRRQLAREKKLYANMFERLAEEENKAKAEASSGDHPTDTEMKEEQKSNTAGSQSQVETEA

[8] = test system: mouse dorsal skin; test: Punch biopsies of mouse dorsal skin treated topically with RT175; format: in vivo, mice
Description: Mice underwent 5 millimeter, full thickness, punch biopsies of their dorsal skin. Mice were then treated topically with 120 nanograms (“ng”) of RT175, daily.

[9] = test system: hair; conditions: rats after craniotomy prior to neurosurgery; cited from earlier work
[10] = molecular target: T2, FKBP52 (Homo sapiens, UniProt Q02790); conditions: fibroblasts treated for 2 hours; cited from earlier work
T2 construct: endogenous in cells
T2 sequence (Q02790 1-459): T1 sequence (Q02790 1-459)

Nc1cc(N2CCCCC2)nc(N)[n+]1[O-] [minoxidil]
treated individuals who maintained existing hair with no additional loss [1]: 50% | treated individuals with new hair growth ([1]; minoxidil treatment): 15%

CCC(C)(C)C(=O)C(=O)N1CCCC1Cc1ccccc1 (stereo not shown) [RT1061]
hair growth [2]: rapid hair growth | skin regeneration [2]: rapid regeneration of rasped skin

CCC(C)(C)C(=O)C(=O)N1CCC[C@H]1C(=O)O [RT175]
hair growth [3]: induce hair growth | hair regeneration in the lesion [4]: regeneration of hair | lesion healing versus vehicle-treated lesion [4]: early and transient appearance of granulation tissue, followed by rapid revascularization, invasion of newly formed skin from wound edges, accelerated repigmentation | hair growth [5]: absence of hair growth | scalp closure after brain surgery [6]: full scalp closure | binding affinity [7]: high affinity | healing of the wound site versus vehicle ([8]; 5 days after punch biopsy, 120 ng RT175 topically daily): clearly accelerated | treated wounds completely closed ([8]; 9 days after punch biopsy, 120 ng topically daily): 80% | hair regeneration in the wound ([8]; 9 days after punch biopsy, intact follicles even in the middle of the wound): robust hair regeneration | time for the other 20% of treated wounds to close ([8]; after day 9, 120 ng topically daily): ≤ 18 h | hair regrowth [9]: re-grow hair | FKBP52 localisation [10]: translocation of FKBP52 to the nucleus
